# Read-outs that look alike come from different tables or passages of the source.
# Biological target: human ALK5 (Homo sapiens (Human), UniProt P36897)
# Test: ADP-GLO Kinases assay, inhibitory activity on ALK5
# Assay type: biochemical
# Description: The enzymatic activity of compounds of the present invention was monitored measuring the formation of ADP using the ADP-GLO Kinases assay. Following the incubation of the purified enzyme, a substrate and ATP, the produced ADP was converted into ATP, which in turn was converted into light by Ultra-Glo Luciferase. The luminescent signal positively correlated with ADP amount and kinase activity. […] The assay was performed in 384-well format and was validated using a selection of reference compounds that was tested in 11 point concentration-response curve.
# [1] = purified recombinant human ALK5 2.6 nM, TGFβ1 peptide substrate, 25° C, 150 min incubation, ADP-Glo detection, read-out: ALK5 IC50
# human ALK5, sequence (P36897 80-503 limits assumed): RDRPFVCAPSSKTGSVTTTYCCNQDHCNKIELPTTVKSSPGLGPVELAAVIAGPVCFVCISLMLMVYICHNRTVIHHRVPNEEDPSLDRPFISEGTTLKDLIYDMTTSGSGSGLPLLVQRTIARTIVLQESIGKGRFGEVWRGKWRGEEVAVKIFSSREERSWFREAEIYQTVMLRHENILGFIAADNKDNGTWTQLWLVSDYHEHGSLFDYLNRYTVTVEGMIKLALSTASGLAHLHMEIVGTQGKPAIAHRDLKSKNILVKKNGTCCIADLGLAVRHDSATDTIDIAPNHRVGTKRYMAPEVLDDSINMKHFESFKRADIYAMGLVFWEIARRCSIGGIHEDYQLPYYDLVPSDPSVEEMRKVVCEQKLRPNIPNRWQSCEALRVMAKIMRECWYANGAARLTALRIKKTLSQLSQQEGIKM
IC50 [1],SMILES,IC50
< 1 nM,"Cc1nnc(-c2cc(Cl)ccc2F)cc1Nc1ccnc(NC(=O)CCN2CCC(O)CC2)c1 [Example 140, N-(4-{[6-(5-Chloro-2-Fluorophenyl)-3-Methylpyridazin-4-Yl]Amino}Pyridin-2-Yl)-3-(4-Hydroxypiperidin-1-Yl)Propanamide]",
< 1 nM,"CNCCn1cc(C(=O)Nc2cc(Nc3cc(-c4cc(Cl)ccc4F)nnc3C)ccn2)cn1 [Example 155, N-(4-{[6-(5-Chloro-2-Fluorophenyl)-3-Methylpyridazin-4-Yl]Amino}Pyridin-2-Yl)-1-[2-(Methylamino)Ethyl]-1H-Pyrazole-4-Carboxamide]",
< 1 nM,"CN1CCN(CCOc2ccc3c(Nc4cc(-c5cc(Cl)ccc5F)nnc4C(F)(F)F)ccnc3c2)CC1 [Example 183, N-[6-(5-Chloro-2-Fluorophenyl)-3-(Trifluoromethyl)Pyridazin-4-Yl]-7-[2-(4-Methylpiperazin-1-Yl)Ethoxy]Quinolin-4-Amine]",
,"CN1CCC(CCN(C)C(=O)Oc2ccc3c(Nc4cnnc(-c5cc(Cl)ccc5F)c4)ccnc3c2)CC1 [Example 51, 4-{[6-(5-Chloro-2-Fluorophenyl)Pyridazin-4-Yl]Amino}Quinolin-7-Yl N-Methyl-N-[2-(1-Methylpiperidin-4-Yl)Ethyl]Carbamate]",1 to 5 nM
< 1 nM,"Cc1nnc(-c2cc(Cl)ccc2F)cc1Nc1ccnc(NC(=O)CCN2CCN(CCC#N)CC2)c1 [Example 84, N-(4-{[6-(5-Chloro-2-Fluorophenyl)-3-Methylpyridazin-4-Yl]Amino}Pyridin-2-Yl)-3-[4-(2-Cyanoethyl)Piperazin-1-Yl]Propanamide]",
< 1 nM,"CN1CCN(CCOc2ccc3c(Nc4cnnc(-c5cc(Cl)ccc5F)c4)ccnc3c2)CC1 [Example 12, N-[6-(5-Chloro-2-Fluorophenyl)Pyridazin-4-Yl]-7-[2-(4-Methylpiperazin-1-Yl)Ethoxy]Quinolin-4-Amine]",
< 1 nM,"COC(=O)C1CN(C)CCN1CCC(=O)Nc1cc(Nc2cc(-c3cc(Cl)ccc3F)nnc2C)ccn1 (centres unmarked) [Example 99, Methyl 1-{2-[(4-{[6-(5-Chloro-2-Fluorophenyl)-3-Methylpyridazin-4-Yl]Amino}Pyridin-2-Yl)Carbamoyl]Ethyl}-4-Methylpiperazine-2-Carboxylate]",
< 1 nM,"CN1C[C@@H]2CN(CCOc3ccc4c(Nc5cnnc(-c6cc(Cl)ccc6F)c5)ccnc4c3)C[C@@H]2C1 [Example 55, Cis N-[6-(5-Chloro-2-Fluorophenyl)Pyridazin-4-Yl]-7-(2-{5-Methyl-Octahydropyrrolo[3,4-c]Pyrrol-2-Yl}Ethoxy)Quinolin-4-Amine]",
< 1 nM,"Cc1nnc(-c2cc(Cl)ccc2F)cc1Nc1ccnc(NC(=O)CC2CCN(C)CC2)c1 [Example 157, N-(4-{[6-(5-Chloro-2-Fluorophenyl)-3-Methylpyridazin-4-Yl]Amino}Pyridin-2-Yl)-2-(1-Methylpiperidin-4-Yl)Acetamide]",
< 1 nM,"Fc1ccc(Cl)cc1-c1cc(Nc2ccnc3cc(OCCN4CCN(CC(F)(F)F)CC4)ccc23)cnn1 [Example 41, N-[6-(5-Chloro-2-Fluorophenyl)Pyridazin-4-Yl]-7-{2-[4-(2,2,2-Trifluoroethyl)Piperazin-1-Yl]Ethoxy}Quinolin-4-Amine]",
< 1 nM,"Cc1nnc(-c2cc(Cl)ccc2F)cc1Nc1ccnc(NC(=O)CCN2CCN(C)C3(CC3)C2)c1 [Example 135, N-(4-{[6-(5-Chloro-2-Fluorophenyl)-3-Methylpyridazin-4-Yl]Amino}Pyridin-2-Yl)-3-{4-Methyl-4,7-Diazaspiro[2.5]Octan-7-Yl}Propanamide]",
< 1 nM,"CN1CCN(CCOc2cc3nccc(Nc4cnnc(-c5cc(Cl)ccc5F)c4)c3cc2O)CC1 [Example 148, 4-{[6-(5-Chloro-2-Fluorophenyl)Pyridazin-4-Yl]Amino}-7-[2-(4-Methylpiperazin-1-Yl)Ethoxy]Quinolin-6-Ol]",
< 1 nM,"Fc1ccc(Cl)cc1-c1cc(Nc2ccnc3cc(OCCN4CCOCC4)ccc23)cnn1 [Example 3, N-[6-(5-Chloro-2-Fluorophenyl)Pyridazin-4-Yl]-7-[2-(Morpholin-4-Yl)Ethoxy]Quinolin-4-Amine]",
< 1 nM,"Cc1nnc(-c2cc(Cl)ccc2F)cc1Nc1ccnc(NC(=O)N2CCN(C)CC2)c1 [Example 85, N-(4-{[6-(5-Chloro-2-Fluorophenyl)-3-Methylpyridazin-4-Yl]Amino}Pyridin-2-Yl)-4-Methylpiperazine-1-Carboxamide]",
< 1 nM,Fc1ccc(Cl)cc1-c1cc(Nc2ccncc2)c(C(F)(F)F)nn1 [Example 181],
< 1 nM,"CN1CCC(COc2ccc3c(Nc4cnnc(-c5cc(Cl)ccc5F)c4)ccnc3c2)CC1 [Example 89, N-[6-(5-Chloro-2-Fluorophenyl)Pyridazin-4-Yl]-7-[(1-Methylpiperidin-4-Yl)Methoxy]Quinolin-4-Amine]",

IC50 [1],SMILES,IC50
1 to 5 nM,"CN1CC[C@@H](OC(=O)c2ccc3c(Nc4cnnc(-c5cc(Cl)ccc5F)c4)ccnc3c2)C1 [Example 54, (3R)-1-Methylpyrrolidin-3-Yl 4-{[6-(5-Chloro-2-Fluorophenyl)Pyridazin-4-Yl]Amino}Quinoline-7-Carboxylate]",
< 1 nM,"COC(=O)[C@H]1CC[C@H](c2nnc(-c3cc(Cl)ccc3F)cc2Nc2ccnc(NC(=O)CCN3CCN(C)CC3)c2)CC1 [Example 189, methyl trans-4-(6-(5-chloro-2-fluorophenyl)-4-((2-(3-(4-methylpiperazin-1-yl)propanamido)pyridin-4-yl)amino)pyridazin-3-yl)cyclohexane-1-carboxylate]",
< 1 nM,"O=C(CCN1CCNCC1)Nc1cc(Nc2cnnc(-c3cc(Cl)ccc3F)c2)ccn1 [Example 2, N-(4-{[6-(5-Chloro-2-Fluorophenyl)Pyridazin-4-Yl]Amino}Pyridin-2-Yl)-3-(Piperazin-1-Yl)Propanamide]",
< 1 nM,"Cc1nnc(-c2cc(Cl)ccc2F)cc1Nc1ccnc(NC(=O)CCCN2CCCN(C)CC2)c1 [Example 161, N-(4-{[6-(5-Chloro-2-Fluorophenyl)-3-Methylpyridazin-4-Yl]Amino}Pyridin-2-Yl)-4-(4-Methyl-1,4-Diazepan-1-Yl)Butanamide]",
< 1 nM,"O=C(Nc1cc(Nc2cnnc(-c3cc(Cl)ccc3F)c2)ccn1)C1CC1 [Example 7, N-(4-{[6-(5-Chloro-2-Fluorophenyl)Pyridazin-4-Yl]Amino}Pyridin-2-Yl)Cyclopropanecarboxamide]",
< 1 nM,"Cc1nnc(-c2cc(Cl)ccc2F)cc1Nc1ccnc(Nc2ccn(CCN3CCN(C)CC3)n2)c1 [Example 167, N-4-[6-(5-Chloro-2-Fluorophenyl)-3-Methylpyridazin-4-Yl]-N-2-{1-[2-(4-Methylpiperazin-1-Yl)Ethyl]-1H-Pyrazol-3-Yl}Pyridine-2,4-Diamine]",
< 1 nM,"COC(=O)CCCc1nnc(-c2cc(Cl)ccc2F)cc1Nc1ccnc(NC(=O)CCN2CCN(C)CC2)c1 [Example 191, Methyl 4-(6-(5-Chloro-2-Fluorophenyl)-4-((2-(3-(4-Methylpiperazin-1-Yl)Propanamido)Pyridin-4-Yl)Amino)Pyridazin-3-Yl)]",
< 1 nM,"Fc1ccc(Cl)cc1-c1cc(Nc2ccnc3cc(OCCN4CCNCC4)ccc23)cnn1 [Example 9, N-[6-(5-chloro-2-fluorophenyl)pyridazin-4-yl]-7-[2-(piperazin-1-yl)ethoxy]quinolin-4-amine]",
< 1 nM,"COC(=O)CC1CN(CCC(=O)Nc2cc(Nc3cc(-c4cc(Cl)ccc4F)nnc3C)ccn2)CCN1C (centres unmarked) [Example 98, Methyl 2-(4-{2-[(4-{[6-(5-Chloro-2-Fluorophenyl)-3-Methylpyridazin-4-Yl]Amino}Pyridin-2-Yl)Carbamoyl]Ethyl}-1-Methylpiperazin-2-Yl)Acetate]",
< 1 nM,"Cc1nnc(-c2cc(Cl)ccc2F)cc1Nc1ccnc(NC(=O)CCN2CCSCC2)c1 [Example 120, N-(4-{[6-(5-Chloro-2-Fluorophenyl)-3-Methylpyridazin-4-Yl]Amino}Pyridin-2-Yl)-3-(Thiomorpholin-4-Yl)Propanamide]",
< 1 nM,"Cc1nnc(-c2cc(Cl)ccc2F)cc1Nc1ccnc(NC(=O)CCN2CCN(C)CC2CO)c1 (centres unmarked) [Example 163, N-(4-{[6-(5-chloro-2-fluorophenyl)-3-methylpyridazin-4-yl]amino}pyridin-2-yl)-3-[2-(hydroxymethyl)-4-methylpiperazin-1-yl]propanamide]",
1 to 5 nM,"CN1CCN(CCNC(=O)c2c[nH]c3nccc(Nc4cnnc(-c5cc(Cl)ccc5F)c4)c23)CC1 [Example 21, 4-{[6-(5-Chloro-2-Fluorophenyl)Pyridazin-4-Yl]Amino}-N-[2-(4-Methylpiperazin-1-Yl)Ethyl]-1H-Pyrrolo[2,3-13]Pyridine-3-Carboxamide]",
< 1 nM,"CN1CCN(CCOc2ccc3c(Nc4cc(-c5cc(Cl)ccc5F)nnc4CO)ccnc3c2)CC1 [Example 177, [6-(5-Chloro-2-Fluorophenyl)-4-({7-[2-(4-Methylpiperazin-1-Yl)Ethoxy]Quinolin-4-Yl}Amino)Pyridazin-3-Yl]Methanol]",
,"CS(=O)(=O)CCN1CCN(C(=O)Oc2ccc3c(Nc4cnnc(-c5cc(Cl)ccc5F)c4)ccnc3c2)CC1 [Example 53, 4-{[6-(5-Chloro-2-Fluorophenyl)Pyridazin-4-Yl]Amino}Quinolin-7-Yl 4-(2-Methanesulfonylethyl)Piperazine-1-Carboxylate]",1 to 5 nM
< 1 nM,"Cc1nnc(-c2cc(Cl)ccc2F)cc1Nc1ccnc2[nH]c(C(=O)N(C)CCN3CCN(C)CC3)cc12 [Example 50, 4-{[6-(5-Chloro-2-Fluorophenyl)-3-Methylpyridazin-4-Yl]Amino}-N-Methyl-N-[2-(4-Methylpiperazin-1-Yl)Ethyl]-1H-Pyrrolo[2,3-b]Pyridine-2-Carboxamide]",

SMILES,IC50 [1],IC50
"CN1CCC(CCN2CCN(C(=O)Oc3ccc4c(Nc5cnnc(-c6cc(Cl)ccc6F)c5)ccnc4c3)CC2)CC1 [Example 64, 4-{[6-(5-Chloro-2-Fluorophenyl)Pyridazin-4-Yl]Amino}Quinolin-7-Yl 4-[2-(1-Methylpiperidin-4-Yl)Ethyl]Piperazine-1-Carboxylate]",< 1 nM,
